The series relates to CCRIS mutagenicity, Ames/micronucleus/aberration tests. The series can be described thus: CCRIS mutagenicity studies.
Where [1] appears, read: Test System: AMES SALMONELLA TYPHIMURIUM, Strain/Indicator: TA100, Metabolic Activation: RAT, LIVER, S-9, AROCLOR 1254, Method: STANDARD PLATE.
[2] abbreviates: Test System: AMES SALMONELLA TYPHIMURIUM, Strain/Indicator: TA98, Metabolic Activation: NONE, Method: STANDARD PLATE.
Setting [3] is: Test System: AMES SALMONELLA TYPHIMURIUM, Strain/Indicator: TA98, Metabolic Activation: RAT, LIVER, S-9, AROCLOR 1254, Method: STANDARD PLATE.
Setting [4] is: Test System: AMES SALMONELLA TYPHIMURIUM, Strain/Indicator: TA100, Metabolic Activation: NONE, Method: STANDARD PLATE.
Where [5] appears, read: Test System: AMES SALMONELLA TYPHIMURIUM, Strain/Indicator: TA1535, Metabolic Activation: NONE, Method: STANDARD PLATE.
[6] abbreviates: Test System: AMES SALMONELLA TYPHIMURIUM, Strain/Indicator: TA1535, Metabolic Activation: RAT, LIVER, S-9, AROCLOR 1254, Method: STANDARD PLATE.
The mark [7] stands for this setting: Test System: AMES SALMONELLA TYPHIMURIUM, Strain/Indicator: TA1537, Metabolic Activation: NONE, Method: STANDARD PLATE.
[8] abbreviates: Test System: AMES SALMONELLA TYPHIMURIUM, Strain/Indicator: TA1537, Metabolic Activation: RAT, LIVER, S-9, AROCLOR 1254, Method: STANDARD PLATE.
[9] abbreviates: Test System: AMES SALMONELLA TYPHIMURIUM, Strain/Indicator: TA100, Metabolic Activation: RAT, LIVER, S-9, AROCLOR 1254, Method: PREINCUBATION
The mark [10] stands for this setting: Test System: AMES SALMONELLA TYPHIMURIUM, Strain/Indicator: TA98, Metabolic Activation: NONE, Method: PREINCUBATION
Where [11] appears, read: Test System: AMES SALMONELLA TYPHIMURIUM, Strain/Indicator: TA100, Metabolic Activation: NONE, Method: PREINCUBATION
Where [12] appears, read: Test System: AMES SALMONELLA TYPHIMURIUM, Strain/Indicator: TA1538, Metabolic Activation: NONE, Method: STANDARD PLATE.
[13] abbreviates: Test System: AMES SALMONELLA TYPHIMURIUM, Strain/Indicator: TA1538, Metabolic Activation: RAT, LIVER, S-9, AROCLOR 1254, Method: STANDARD PLATE.

Eight compounds from PubChem BioAssay AID1259407 (Chemical Carcinogenesis Research Information System (CCRIS), 2018) can be followed below.

Structures are written as SMILES. Activity calls are given as the source filed them. The rule behind the calls is not given here.

For `CCCn1cc2c3c(cccc31)C1C[C@@H](C)CN(C#N)[C@@H]1C2` (some centres not stated), under setting [1], the mutagenic call is “active; positive”.

As for `CC(C(=O)O)c1ccc(Oc2nccs2)cc1` (configuration not stated), the mutagenic call is “inactive; negative” under setting [2]; “inactive; negative” under setting [3]; “inactive; negative” under setting [4]; “inactive; negative” under setting [1]; “inactive; negative” under setting [5]; “inactive; negative” under setting [6]. Moreover, the mutagenic call under setting [7] is “inactive; negative”; the mutagenic call under setting [8] was “inactive; negative”; the mutagenic call (Test System: E. COLI, Strain/Indicator: WP2, Metabolic Activation: NONE, Method: STANDARD PLATE) was “inactive; negative”; the mutagenic call (Test System: E. COLI, Strain/Indicator: WP2, Metabolic Activation: RAT, LIVER, S-9, AROCLOR 1254, Method: STANDARD PLATE) is “inactive; negative”; the mutagenic call (Test System: E. COLI, Strain/Indicator: WP2 UVRA, Metabolic Activation: NONE, Method: STANDARD PLATE) was “inactive; negative”; the mutagenic call (Test System: E. COLI, Strain/Indicator: WP2 UVRA, Metabolic Activation: RAT, LIVER, S-9, AROCLOR 1254, Method: STANDARD PLATE) was “inactive; negative”.

With `c1ccc2c(c1)ccc1ncccc12`, the mutagenic call by setting is: (End Point: IN VITRO CHROMOSOMAL ABERRATIONS, Test System: CHL CELLS, Metabolic Activation: RAT, LIVER, S-9, SODIUM PHENOBARBITAL AND 5,6-BENZOFLAVONE) “active; positive (structural changes)”; (End Point: IN VITRO MICRONUCLEUS, Test System: CHL/IU CELLS, Metabolic Activation: NONE) “active; positive”; under setting [3], “active; positive”; under setting [9], “active; positive”; under setting [1], “active; positive”; (Test System: AMES SALMONELLA TYPHIMURIUM, Strain/Indicator: TA100, Metabolic Activation: RAT, LIVER, S-9, PHENOBARBITAL AND 5,6-BENZOFLAVONE, Method: PREINCUBATION) “active; positive”.

On to `C=CC(=O)OCCCC`, for which the mutagenic call by setting is: (Test System: AMES SALMONELLA TYPHIMURIUM, Strain/Indicator: TA98, Metabolic Activation: HAMSTER, LIVER, S-9, AROCLOR 1254 (10%), Method: PREINCUBATION) “inactive; negative”; under setting [10], “inactive; negative”; under setting [2], “inactive; negative”; (Test System: AMES SALMONELLA TYPHIMURIUM, Strain/Indicator: TA98, Metabolic Activation: RAT, LIVER, S-9, AROCLOR 1254 (10%), Method: PREINCUBATION) “inactive; negative”; under setting [3], “inactive; negative”; (Test System: AMES SALMONELLA TYPHIMURIUM, Strain/Indicator: TA98, Metabolic Activation: RAT, LIVER, S-9, SODIUM PHENOBARBITAL, Method: STANDARD PLATE) “inactive; negative”. The mutagenic call runs as follows: (Test System: AMES SALMONELLA TYPHIMURIUM, Strain/Indicator: TA100, Metabolic Activation: HAMSTER, LIVER, S-9, AROCLOR 1254 (10%), Method: PREINCUBATION) “inactive; negative”; under setting [11], “inactive; negative”; under setting [4], “inactive; negative”; (Test System: AMES SALMONELLA TYPHIMURIUM, Strain/Indicator: TA100, Metabolic Activation: RAT, LIVER, S-9, AROCLOR 1254 (10%), Method: PREINCUBATION) “inactive; negative”; under setting [9], “inactive; negative”; under setting [1], “inactive; negative”. For the same compound, the mutagenic call runs as follows: (Test System: AMES SALMONELLA TYPHIMURIUM, Strain/Indicator: TA100, Metabolic Activation: RAT, LIVER, S-9, SODIUM PHENOBARBITAL, Method: STANDARD PLATE) “inactive; negative”; (Test System: AMES SALMONELLA TYPHIMURIUM, Strain/Indicator: TA1535, Metabolic Activation: HAMSTER, LIVER, S-9, AROCLOR 1254 (10%), Method: PREINCUBATION) “inactive; negative”; (Test System: AMES SALMONELLA TYPHIMURIUM, Strain/Indicator: TA1535, Metabolic Activation: NONE, Method: PREINCUBATION) “inactive; negative”; under setting [5], “inactive; negative”; (Test System: AMES SALMONELLA TYPHIMURIUM, Strain/Indicator: TA1535, Metabolic Activation: RAT, LIVER, S-9, AROCLOR 1254 (10%), Method: PREINCUBATION) “inactive; negative”; under setting [6], “inactive; negative”. In addition, the mutagenic call was “inactive; negative” (Test System: AMES SALMONELLA TYPHIMURIUM, Strain/Indicator: TA1535, Metabolic Activation: RAT, LIVER, S-9, SODIUM PHENOBARBITAL, Method: STANDARD PLATE); “inactive; negative” (Test System: AMES SALMONELLA TYPHIMURIUM, Strain/Indicator: TA1537, Metabolic Activation: HAMSTER, LIVER, S-9, AROCLOR 1254 (10%), Method: PREINCUBATION); “inactive; negative” (Test System: AMES SALMONELLA TYPHIMURIUM, Strain/Indicator: TA1537, Metabolic Activation: NONE, Method: PREINCUBATION); “inactive; negative” under setting [7]; “inactive; negative” (Test System: AMES SALMONELLA TYPHIMURIUM, Strain/Indicator: TA1537, Metabolic Activation: RAT, LIVER, S-9, AROCLOR 1254 (10%), Method: PREINCUBATION); “inactive; negative” under setting [8]. Further, the mutagenic call runs as follows: (Test System: AMES SALMONELLA TYPHIMURIUM, Strain/Indicator: TA1537, Metabolic Activation: RAT, LIVER, S-9, SODIUM PHENOBARBITAL, Method: STANDARD PLATE) “inactive; negative”; under setting [12], “inactive; negative”; under setting [13], “inactive; negative”; (Test System: AMES SALMONELLA TYPHIMURIUM, Strain/Indicator: TA1538, Metabolic Activation: RAT, LIVER, S-9, SODIUM PHENOBARBITAL, Method: STANDARD PLATE) “inactive; negative”; (Test System: MOUSE LYMPHOMA, Strain/Indicator: L5178Y (TK+/TK-), Metabolic Activation: NONE, Method: SUSPENSION/PLATE) “active; positive. reevaluation of results: positive”; (Test System: MOUSE LYMPHOMA, Strain/Indicator: L5178Y (TK+/TK-), Metabolic Activation: RAT, LIVER, S-9, AROCLOR 1254, Method: SUSPENSION/PLATE) “inactive; negative. reevaluation of results: negative”. Besides, where the note is “Test System: UDS RODENT CELLS, Strain/Indicator: SHE CELL-MEDIATED, Metabolic Activation: NONE, Method: LIQUID SCINTILLATION COUNTING (THYMIDINE INCORPORATION)”, the mutagenic call is “inactive; negative”.

Consider `Cc1cccc2c([N+](=O)[O-])cccc12`, for which, under setting [10], the mutagenic call is “active; positive”.

Regarding `COc1ccc2c(ccc3oc([N+](=O)[O-])cc32)c1`, the mutagenic call (Test System: AMES SALMONELLA TYPHIMURIUM, Strain/Indicator: TA100(NR), Metabolic Activation: NONE, Method: STANDARD PLATE) is “active; positive” and the mutagenic call under setting [4] was “active; positive”.

Turning to `CC(C)N(C(=O)SC/C(Cl)=C/Cl)C(C)C`, the mutagenic call runs as follows: under setting [2], “inactive; negative”; under setting [3], “active; positive”; under setting [4], “inactive; negative”; under setting [1], “active; positive”; under setting [5], “inactive; negative”; under setting [6], “active; positive”. For the same compound, the mutagenic call is “inactive; negative” under setting [7], “inactive; negative” under setting [8], “inactive; negative” under setting [12] and “inactive; negative” under setting [13].

`O=c1c(=O)c2c([N+](=O)[O-])ccc3ccc4cccc1c4c32`: the mutagenic call is “active; positive” under setting [10]; “active; positive” (Test System: AMES SALMONELLA TYPHIMURIUM, Strain/Indicator: TA98, Metabolic Activation: RAT, LIVER, S-9, AROCLOR 1254, Method: PREINCUBATION); “active; positive” under setting [11]; “active; positive” under setting [9].
